# Source: patent publication US10077463B2, “Optical selection of cells” (President and Fellows of Harvard College, priority 2015, dated 2018)
# Key:
# [1] = test system: MDCK cells; test: Photostick of MDCK cells (violet light crosslinking, ACCUTASE development); assay type: cell-based, Canine
# [2] = test system: MDCK cells; assay type: cell-based; conditions: 4 μM, 407 nm light 825 J/cm^2
# [3] = test system: MDCK cells; test: Cell entry by high magnification fluorescence imaging; assay type: cell-based, Canine; conditions: 4 μM, fluorescence localized to the cell membrane
# [4] = test system: rat hippocampal neurons; test: Photostick of a single neuron chosen by Optopatch firing pattern; assay type: cell-based; conditions: 15 μM, 407 nm light 2200 J/cm^2, ACCUTASE 6 min 37° C.
smiles,measurement,setting,value
CC[N+]1=C(/C=C/C=C2/N(CCCCCC(=O)NCCNC(=O)CCSSCCNC(=O)C(CCCCNC(=O)CCCCC3SCC4NC(=O)NC43)NC(=O)c3ccc(N=[N+]=N)cc3)c3ccc(S(=O)(=O)O)cc3C2(C)C)C(C)(C)c2cc(S(=O)(=O)O)ccc21 (stereo not drawn) [Cy3-SBED],Cells in the dark region removed,[1],99.96%
same,Cells within the illuminated region retained (photostuck cells remained),[1],98.7%
same,Non-photostuck cells remained,[1],0.04%
same,Cell doubling time post-photostick,[2],34 h
same,Entry into cells (intracellular fluorescence),[3],did not enter the cells
same,Retention of selected neuron after ACCUTASE (in words),[4],the selected neuron remained
